According to patent publication US6723897B2, “Methods for controlling gibberellin levels” (Monsanto Technology, LLC, priority 1998, dated 2004):

Tests used:
[1] = tested on: non-transgenic soybean line A4922; assay: Field trial of seed coatings under soil compaction / different soils, wild-type soybean; format: in vivo, Glycine max; conditions: for Count (emergence) / Height (total plant height): A4922
Procedure: The second trial (data reported in Tables 22-24) tested the precursors under conditions of soil compaction.
As noted above, the second trial tested the noted precursors under conditions of soil compaction. These experiments are performed in the same manner as in the first trial, except that the soil is compacted with an all-terrain vehicle.
“Height” equals total plant height in cm.

[2] = tested on: wild-type soybean line A4922; assay: Field trial of seed coating application rates, wild-type soybean
Procedure, shortened: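 GA compounds seed-coated at 0–100 μg/seed (GA12 also 50 μg/seed), acetone carrier, versus untreated dry seed. Sown in light and heavy soil, drip-irrigated, three replicates in randomized blocks. Emergence, unrescued dwarfs, plant height and uniformity scored; LSD at 0.05.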

[3] = tested on: transgenic line 719 soybean; assay: Field trial of seed coatings under soil compaction / different soils, GA-deficient soybean; format: in vivo, Glycine max; conditions: for Count (emergence) / Dwarfs (number of dwarfs not rescued) / Dwarfs (number not rescued): Line 719
[4] = tested on: wild-type soybean line A3237; assay: Experiment II second greenhouse test, seed imbibition, wild-type soybean; format: in vivo, Glycine max; conditions: 0.25 mg/ml; seeds imbibed 6 hours
Procedure, shortened: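 Twenty seeds per treatment were imbibed 6 hours in test solutions, with dry, 1% ethanol and water-imbibed controls. Seeds were then planted and grown three weeks in the greenhouse with sub-irrigation, under 16 h light/8 h dark at 300-400 μmol m^−2 s^−1. Scoring covered dwarf, intermediate and tall plant counts, plant height, uniformity of rescue and visual effects.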

[5] = Heavy soil - Loose, target rate 1.0 μg/seed, Table 23
[6] = Heavy soil - Loose, target rate 10.0 μg/seed, Table 23
[7] = Heavy soil - Loose, target rate 40.0 μg/seed, Table 23
[8] = Heavy soil - compacted, target rate 1.0 μg/seed, Table 23
[9] = Heavy soil - compacted, target rate 10.0 μg/seed, Table 23
[10] = Heavy soil - compacted, target rate 40.0 μg/seed, Table 23
[11] = Heavy soil - loose, target rate 40.0 μg/seed, Table 22
[12] = Light soil - Compacted, target rate 40.0 μg/seed, Table 22
[13] = Light soil - Loose, target rate 1.0 μg/seed, Table 24
[14] = Light soil - Loose, target rate 10.0 μg/seed, Table 24
[15] = Light soil - Loose, target rate 40.0 μg/seed, Table 24
[16] = Light soil - compacted, target rate 1.0 μg/seed, Table 24
[17] = Light soil - compacted, target rate 10.0 μg/seed, Table 24
[18] = Light soil - compacted, target rate 40.0 μg/seed, Table 24

In the case of `C=C1C[C@]23C[C@H]1CC[C@H]2[C@]1(C)CCC[C@@](C)(C(=O)O)[C@H]1[C@@H]3C(=O)O` [GA12], the “Count (emergence)” value [1, 5] is reported as 36.0 a, the “Height (total plant height)” value [1, 5] is reported as 4.7e-15 g·cm and the “Count (emergence)” value [1, 6] is reported as 26.7 b-c. The “Height (total plant height)” value [1, 6] was 4.0 g·cm, the “Count (emergence)” value [1, 7] was 33.0 ab and the “Height (total plant height)” value [1, 7] was 4.3 g·cm. For the same compound, the “Count (emergence)” value [1, 8] was 17.0 a, the “Height (total plant height)” value [1, 8] was 4.3 cde cm and the “Count (emergence)” value [1, 9] was 12.3 abc. For the same compound, the “Height (total plant height)” value [1, 9] was 3.7 e cm, the “Count (emergence)” value [1, 10] was 13.7 abc and the “Height (total plant height)” value [1, 10] was 4.0 de cm. For the same compound, the “Count (emergence)” value [1, 11] was 33 ab, the “Height (total plant height)” value [1, 11] was 4.3 g·cm and the “Count (emergence)” value [1, 12] was 41 a. The “Height (total plant height)” value [1, 12] was 4.3 g·cm, the “Count (emergence)” value [1, 13] was 43.7 abc and the “Height (total plant height)” value [1, 13] was 4.0 hi cm. The “Count (emergence)” value [1, 14] was 47.7 a, the “Height (total plant height)” value [1, 14] was 3.7 i cm and the “Count (emergence)” value [1, 15] was 44.0 abc. For the same compound, the “Height (total plant height)” value [1, 15] was 4.0 hi cm, the “Count (emergence)” value [1, 16] was 39.3 ab and the “Height (total plant height)” value [1, 16] was 4.3 g·cm. The “Count (emergence)” value [1, 17] was 41.7 a, the “Height (total plant height)” value [1, 17] was 4.0 g·cm and the “Count (emergence)” value [1, 18] was 41.0 a. The “Height (total plant height)” value [1, 18] was 4.3 g·cm, the “plant height dose/response in wild-type line A4922 (FIG. 40)” value ([1]; ten days after planting, compacted soil) was “inhibited plant height” and the “A4922 Height, cm, Heavy soil” value ([2]; 0.1 μg compound per seed) was 5.3 fg·cm. The “A4922 Height, cm, Light soil” value ([2]; 0.1 μg compound per seed) was 5.7 f-i cm, the “No. A4922 Emerged, Heavy soil” value ([2]; 0.1 μg compound per seed) was 24.3 g·days and the “No. A4922 Emerged, Light soil” value ([2]; 0.1 μg compound per seed) was 45.7 c-h. The “A4922 Height, cm, Heavy soil” value ([2]; 1 μg compound per seed) was 5.7 efg cm, the “A4922 Height, cm, Light soil” value ([2]; 1 μg compound per seed) was 5.0 g-i cm and the “No. A4922 Emerged, Heavy soil” value ([2]; 1 μg compound per seed) was 48.0 ab. For the same compound, the “No. A4922 Emerged, Light soil” value ([2]; 1 μg compound per seed) was 55.7 ab, the “A4922 Height, cm, Heavy soil” value ([2]; 10 μg compound per seed) was 5.0 fgh cm and the “A4922 Height, cm, Light soil” value ([2]; 10 μg compound per seed) was 3.7 hij cm. The “No. A4922 Emerged, Heavy soil” value ([2]; 10 μg compound per seed) was 19.0 fg, the “No. A4922 Emerged, Light soil” value ([2]; 10 μg compound per seed) was 46.3 c-g and the “A4922 Height, cm, Heavy soil” value ([2]; 50 μg compound per seed) was 2.7 hi cm. The “A4922 Height, cm, Light soil” value ([2]; 50 μg compound per seed) was 3.0 ij cm, the “No. A4922 Emerged, Heavy soil” value ([2]; 50 μg compound per seed) was 40.0 bcd and the “No. A4922 Emerged, Light soil” value ([2]; 50 μg compound per seed) was 51.3 bcd. The “A4922 Height, cm, Heavy soil” value ([2]; 100 μg compound per seed) was 2.3 i cm, the “A4922 Height, cm, Light soil” value ([2]; 100 μg compound per seed) was 2.7 J·cm and the “No. A4922 Emerged, Heavy soil” value ([2]; 100 μg compound per seed) was 38.7 bcd. The “No. A4922 Emerged, Light soil” value ([2]; 100 μg compound per seed) was 53.0 bc, the “Count (emergence)” value [3, 5] was 36.0 ab and the “Dwarfs (number of dwarfs not rescued)” value [3, 5] was 10.0 a. The “Count (emergence)” value [3, 6] was 35.3 abc, the “Dwarfs (number of dwarfs not rescued)” value [3, 6] was 7.0 b and the “Count (emergence)” value [3, 7] was 35.3 abc. The “Dwarfs (number of dwarfs not rescued)” value [3, 7] was 3.3 c, the “Count (emergence)” value [3, 8] was 18.7 ab and the “Dwarfs (number of dwarfs not rescued)” value [3, 8] was 4.0 a. For the same compound, the “Count (emergence)” value [3, 9] was 13.0 b-e, the “Dwarfs (number of dwarfs not rescued)” value [3, 9] was 2.0 b and the “Count (emergence)” value [3, 10] was 22.7 a. The “Dwarfs (number of dwarfs not rescued)” value [3, 10] was 1.3 bc, the “Count (emergence)” value [3, 11] was 35 abc and the “Dwarfs (number of dwarfs not rescued)” value [3, 11] was 3.3 c. For the same compound, the “Count (emergence)” value [3, 12] was 42 a, the “Dwarfs (number of dwarfs not rescued)” value [3, 12] was 3.7 bc and the “Count (emergence)” value [3, 13] was 46.3 a. For the same compound, the “Dwarfs (number not rescued)” value [3, 13] was 17.3 b, the “Count (emergence)” value [3, 14] was 48.3 a and the “Dwarfs (number not rescued)” value [3, 14] was 11.3 c. For the same compound, the “Count (emergence)” value [3, 15] was 46.0 a, the Dwarfs (number not rescued) [3, 15] was 7.7 and the “Count (emergence)” value [3, 16] was 40.3 a. For the same compound, the “Dwarfs (number not rescued)” value [3, 16] was 8.3 a, the “Count (emergence)” value [3, 17] was 40.0 ab and the “Dwarfs (number not rescued)” value [3, 17] was 4.3 b. For the same compound, the “Count (emergence)” value [3, 18] was 42.0 a, the “Dwarfs (number not rescued)” value [3, 18] was 3.7 bc and the “rank of potential for rescuing GA-deficient dwarf soybeans without decreasing emergence” value ([3]; based on the last two field trials) was “GA9>GA5>GA3-3-acetate>GA3>GA12”. For the same compound, the “Significant Visual Observations on Line A3237” value [4] was “Short plants”.
